In patent publication US10821148B2, “Pharmaceutical composition for treating or alleviating an autoimmune disease and/or complication thereof and/or nephritis and method for treating or alleviating an autoimmune disease and/or complication thereof and/or nephritis” (Industrial Technology Research Institute, priority 2016, dated 2020):
Where two headings read alike, the source gives them in different places. One block for each compound: values may come before it.

Tests used:
[1] = system: IL-17 secretion in peripheral blood leukocytes (PBLs); test: Anti-IL-17 secretion screening, peripheral blood leukocyte (PBL) platform; assay type: cell-based; conditions: rat PBL, PMA + ionomycin, 48 hours
Method: 2. Method 2: Anti-IL-17 Secretion Drug Screening Through a Peripheral Blood Leukocyte (PBL) Platform
Blood of SD rat was obtained through saphenous vein sampling. The rat blood was placed in a centrifuge tube containing EDTA (final concentration was 2 mg/ml) and mixed well, and then 4-fold volume of ACK buffer was added to the centrifuge tube to lyse red blood cells. The above-mentioned centrifuge tube was placed in a 37° C. water bath for 5 minutes, and 4 folds volume of PBS buffer was added to the centrifuge tube and the centrifuge tube was centrifuged at a speed of 3000 rpm for 5 minutes, and the supernatant was removed. After that, the steps for lysing red blood cells were repeated twice and an appropriate volume of cell culture medium was added to the centrifuge.
The cells was implanted to a 96-well plate (2×10^5 cells/well), and an appropriate concentration of a drug to be tested was added therein (10 μl/well) and evenly mixed. Next, the 96-well plate was placed in an incubator at 37° C. with 5% CO2 for 1 hour. After that, the stimuli, phorbol-12-myristate-13-acetate (PMA) (final concentration was 30 ng/ml), and ionomycin (final concentration was 1 μg/ml) were added to the 96-well plate. After being evenly mixed, the 96-well plate was placed in an incubator for 48 hours.
After 48 hours of culturing, the 96-well plate was centrifuged at 3000 rpm for 5 minutes to let the cells precipitate and the supernatant (cell-cultured medium) was transferred to a new 96-well plate (about 155 μl/well).
After the cell-cultured medium in the new 96 well plate was 2-4 fold diluted, a rat IL-17 ELISA kit (eBioscience, 88-7170) was used to determine IL-17 content thereof.
For both of cell viability assay and IL-17 content assay, the result of the group adding phorbol-12-myristate-13-acetate (PMA) and ionomycin was set as 100%, and secretion of IL-17 was shown by percentage.

[2] = system: IL-6; test: Lipopolysaccharide (LPS)-induced acute inflammation in mice, IL-6; assay type: in vivo; conditions: plasma, 1.5 hours after 1 mg/kg LPS IP, BALB/c mice
Source text: (§1) 5. Method 5: Model of Lipopolysaccharide (LPS)-Induced Acute Inflammation in Mice
(§2) 6-8 weeks old male BALB/c mice were purchased from BioLASCO Taiwan Co., Ltd. On the day that the animals entered, the mice were marked, separated into cages, and weighed. Then, the mice were quarantined for one week, and the breeding conditions meet the standards of the National Laboratory Animal Center (Taiwan). During the quarantine, the motility and environmental adaptability of the mice were observed. If the body weights of the mice increased normally, the mice were moved to the breeding region to await the implementation of the experiment.
(§3) Illumination for the breeding region was automatically controlled for 12-hr light-dark cycle, and the temperature was controlled at 23±2° C. The animals were free to obtain sufficient food and water. This strain of animals has had abundant basic reference information and data, and can be suitable for a functional evaluation test for inflammation, and the experimental method had been approved by Institutional Animal Care and Use Committees (IACUC) in the Industrial Technology Research Institute.
(§4) 5.2 Treatment of the Mice
(§5) Before the experiment, the mice were weighed and grouped to make the average body weight for each group has no obvious difference, and the clinical symptoms of the mice were recorded. Two to four hours before the experiment, the mice were fasting, but water was still regularly provided. At a specific time before or after being stimulated by lipopolysaccharides (LPS), the mice were administered a drug to be tested through oral administration, intraperitoneal injection (IP) or intravenous injection (IV), and after the administration, the clinical symptoms of the mice were observed and recorded. […] The mice were stimulated by 1 mg/kg lipopolysaccharides (0.25 ml/mouse) through intraperitoneal injection (IP), and the clinical symptoms of the mice were observed and recorded. […]
TNF-α, IL-6 and MCP-1 secretion amounts in the plasma were analyzed according to the analysis steps of Duoset® ELISA kit, and the steps are summarized as follows: […]

[3] = system: MCP-1; test: Lipopolysaccharide (LPS)-induced acute inflammation in mice, MCP-1; assay type: in vivo; conditions: plasma, 1.5 hours after 1 mg/kg LPS IP, BALB/c mice
Source text: as §1, §2, §3, §4
Before the experiment, the mice were weighed and grouped to make the average body weight for each group has no obvious difference, and the clinical symptoms of the mice were recorded. Two to four hours before the experiment, the mice were fasting, but water was still regularly provided. At a specific time before or after being stimulated by lipopolysaccharides (LPS), the mice were administered a drug to be tested through oral administration, intraperitoneal injection (IP) or intravenous injection (IV), and after the administration, the clinical symptoms of the mice were observed and recorded. The mice of the control group were administered the same volume of solvent. The mice were stimulated by 1 mg/kg lipopolysaccharides (0.25 ml/mouse) through intraperitoneal injection (IP), and the clinical symptoms of the mice were observed and recorded.
After being stimulated by lipopolysaccharides for 1.5 hours, the mice were euthanized with excess CO2, and then whole blood of the mice was obtained through intra-cardiac puncture.
The whole blood of the mice was centrifuged at 6000 rpm at 4° C. for 10 minutes. After that, plasma was collected, and determinations of TNF-α, IL-6 and MCP-1 secretion amounts in the plasma were performed.
5.3 Determinations of TNF-α, IL-6 and MCP-1 Secretion Amounts
TNF-α, IL-6 and MCP-1 secretion amounts in the plasma were analyzed according to the analysis steps of Duoset® ELISA kit, and the steps are summarized as follows:
At room temperature, a capture antibody mixture solution was added to an ELISA 96 well plate (100 μl/well) to cover the surface of the ELISA 96-well plate. […]

[4] = system: IL-17 secretion in EL4 cells; test: Anti-IL-17 secretion screening, platform of EL4 cells; assay type: cell-based, mouse; conditions: PMA + ionomycin, 18 hours
Method: 8. Method 8: Anti-IL-17 Secretion Drug Screening Through a Platform of EL4 Cells
The EL4 cells were seeded into a 96-well plate (1×10^5 cells/well), and an appropriate concentration of a drug to be tested was added therein (10 μl/well) and evenly mixed.
Next, the 96-well plate was placed in an incubator at 37° C. with 5% CO2 for 1 hour. After that, the stimuli, phorbol-12-myristate-13-acetate (PMA) (final concentration was 10 ng/ml), and ionomycin (final concentration was 5 ng/ml) were added to the 96-well plate. After being evenly mixed, the 96-well plate was placed in an incubator for 18 hours.
After 18 hours of culturing, the 96-well plate was centrifuged at 1200 rpm for 5 minutes to let the cells precipitate and the supernatant (cell-cultured medium) was transferred to a new 96-well plate (about 155 μl/well).
The cell-cultured medium in the new 96-well plate was 2-4 fold diluted and the IL-17 concentration was determined by mouse IL-17 ELISA kit (R&D, DY421E).
For both of cell viability and IL-17 content assays, the results of the group with phorbol-12-myristate-13-acetate (PMA) and ionomycin were set as 100%, and the secretion of IL-17 was expressed by percentage.

[5] = system: TNF-α; test: Lipopolysaccharide (LPS)-induced acute inflammation in mice, TNF-α; assay type: in vivo; conditions: plasma, 1.5 hours after 1 mg/kg LPS IP, BALB/c mice
Source text: as §1
as §2, with “experiment. […]” for “experiment.”
as §5, with “Two to four hours before the experiment, the mice were fasting, but water was still regularly provided.” left out

[6] = system: NZBWF1/J mice; assay type: in vivo; conditions: for Survival rate (%): 50 mg/kg, NZBWF1/J mice
Source text: 6. Method 6: NZBWF Autoimmune Animal Model for Systemic Lupus Erythematosus (SLE)
NZBWF1/J female mice were purchased from The Jackson Laboratory, U.S.A, and after animal quarantine, the mice were fed to an appropriate age (about 16 to 25 weeks old).
Before the experiment, mice were randomly grouped according to the antibody to double stranded DNA (dsDNA) value of sera, then the mice were started to administrate test articles. Mice were administrated 5 days a week, and after 10-18 weeks of continuous administration, the mice were sacrificed. During the administration, body weight change was recorded every week, mice urine were collected every 1 to 2 week by gently pressing the abdomens of the mice and the urinary protein content (mg/dl) was determined by test strips and a protein quantitative kit.
After the experiment was completed, the urine was collected and the whole blood of the mice was obtained through intra-cardiac puncture. After that, kidneys of the mice were exteriorized and weighed. The appearance and pathological changes of kidneys were recorded, and the kidneys were preserved in 10% neutral formalin for pathological examinations. The pathological score was determined according to the literature, Shackelford et al. Toxicol. Pathol. 30: 93-96, and shown by a score of 0 to 5: a score of 0 represents not present; a score of 1 represents minimal (<1%); a score of 2 represents slight (1-25%); a score of 3 represents moderate (26-50%); a score of 4 represents moderate/severe (51-75%), and a score of 5 represents severe (76-100%).
6.2 Determination of Protein Content in Urine
The abdomen (bladder) of the mouse was gently pressed every 1 to 2 week to make the mouse urinate and the urine was collected in a 1.5 ml centrifuge tube, the protein content (mg/dl) in the urine was determined by urine test strip. The test strip was moistened with the urine and stood for 1 minute, and the protein content was determined by the color shown by the test strip. […] If the color shown by the test strip is between two color regions, the urinary protein content is determined by the mean of the values represented by the two regions. […]
The contents of blood urea nitrogen (BUN) and creatinine (CRE) in the serum were determined by FUJI DRI-CHEM 4000i biochemistry analyzer, and the steps are summarized as follows:
Before the experiment, the urea nitrogen and creatinine test strips and the serum to be tested were placed at room temperature to back to room temperature. After that, according to the instructions of the analyzer, 10 μl of serum was added to the central portion of the test strip (if the value exceeded the detectable range, the serum was appropriately diluted with sterilized water), and then determined. […]

IL-17 inhibition IC50, peripheral blood leukocyte (PBL) [1]: 2.4 µg/mL
IL-17 inhibition IC50, EL4 cells [4]: 2.8 µg/mL
Compound: COc1c(CC=C(C)C)c(C=O)cc2c1[nH]c1ccccc12 [F3m, indizoline]
production of the inflammatory factor IL-6 [2]: capable of significantly inhibiting the production of the inflammatory factor, IL-6
production of the inflammatory factor MCP-1 [3]: capable of significantly inhibiting the production of the inflammatory factor, MCP-1

Compound: CC(C)=CCCC(C)=CCOc1c2occc2cc2ccc(=O)oc12 [F4m, 8-geranyloxypsoralen]
IL-17 inhibition IC50, peripheral blood leukocyte (PBL) [1]: 4.3 µg/mL
production of the inflammatory factor TNF-α [5]: capable of significantly inhibiting the production of the inflammatory factor, TNF-α
production of the inflammatory factor IL-6 [2]: capable of significantly inhibiting the production of the inflammatory factor, IL-6
production of the inflammatory factor MCP-1 [3]: capable of significantly inhibiting the production of the inflammatory factor, MCP-1
survival rate of NZBWF1/J mice (in words) ([6]; concluded from HE-07-Fr4 (more than 80% of F4m), Table 10): capable of effectively improving the survival rate of NZBWF1/J mice
IL-17 inhibition IC50, EL4 cells [4]: 15.9 µg/mL

Compound: CC(C)=CCOc1c2occc2cc2ccc(=O)oc12 [F5m, imperatorin]
IC50 ([1]; Leukocyte, read-out: IL-17 inhibition IC50, peripheral blood leukocyte (PBL)): 20.5 µg/mL
production of the inflammatory factor TNF-α [5]: capable of significantly inhibiting the production of the inflammatory factor, TNF-α
production of the inflammatory factor MCP-1 [3]: capable of significantly inhibiting the production of the inflammatory factor, MCP-1
IC50 ([4]; Mus musculus, read-out: IL-17 inhibition IC50, EL4 cells): 45 µg/mL

Compound: CC1(C)O[C@@H]1COc1c2occc2cc2ccc(=O)oc12 [F7m, prangenin]
IL-17 inhibition IC50, peripheral blood leukocyte (PBL) [1]: 28.7 µg/mL
IL-17 inhibition IC50, EL4 cells [4]: 47.2 µg/mL

Compound: O=P1(N(CCCl)CCCl)NCCCO1 (centres unmarked) [cyclophosphamide]
Survival rate (%) ([6]; Table 4 study): 100%
Survival rate (%) ([6]; Table 8 study): 100%
Survival rate (%) ([6]; Table 10 study, 12 weeks): 100%

IL-17 inhibition IC50, peripheral blood leukocyte (PBL) [1]: 3.0 µg/mL
IL-17 inhibition IC50, EL4 cells [4]: 5.1 µg/mL
Compound: ζ-clausenamide [F6m]
production of the inflammatory factor IL-6 [2]: capable of significantly inhibiting the production of the inflammatory factor, IL-6
production of the inflammatory factor MCP-1 [3]: capable of significantly inhibiting the production of the inflammatory factor, MCP-1
